Test results taken from patent EP1935986B1, “Luminogenic and fluorogenic compounds and methods to detect molecules or conditions” (priority 2005, dated 2006).

Molecular target: T1, CYP1A2 (Homo sapiens, UniProt P05177)
T1 construct: purchased Discovery Labware (BD/Gentest); host or cells: insect cell expression system (membrane fractions)
T1 sequence (P05177 2-516 limits assumed): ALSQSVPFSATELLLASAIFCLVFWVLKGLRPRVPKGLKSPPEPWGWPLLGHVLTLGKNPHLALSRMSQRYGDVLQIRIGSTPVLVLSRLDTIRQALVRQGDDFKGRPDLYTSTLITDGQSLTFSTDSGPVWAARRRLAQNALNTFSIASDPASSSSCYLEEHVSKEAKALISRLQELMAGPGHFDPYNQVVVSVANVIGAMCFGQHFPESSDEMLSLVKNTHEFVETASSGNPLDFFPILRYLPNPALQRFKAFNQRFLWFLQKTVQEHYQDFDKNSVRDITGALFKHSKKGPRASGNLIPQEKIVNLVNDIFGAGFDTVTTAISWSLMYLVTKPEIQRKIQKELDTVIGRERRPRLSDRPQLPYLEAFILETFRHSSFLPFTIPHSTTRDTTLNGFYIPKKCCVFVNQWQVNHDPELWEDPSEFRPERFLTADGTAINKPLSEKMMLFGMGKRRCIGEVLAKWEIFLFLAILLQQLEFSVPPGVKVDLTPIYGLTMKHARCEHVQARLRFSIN
Assay: Two-step luminescent P450 screen of luciferin derivatives
Assay type: biochemical
Conditions: 50 µM substrate, 1 pmole P450; result in words
Experimental: P450s are Supersomes™ purchased from Discovery Labware (BD/Gentest). […] HLM is human liver microsomes.
1X substrate concentration: 50 µM.

Compound | P450 activity / selectivity with the derivative as substrate
COc1ccc2nc(C3=N[C@@H](C(=O)O)CS3)ccc2c1 [Quinolylluciferin 6-methyl ether, 2-(6-methoxyquinolin-2-yl)-4,5-dihydrothiazole-4-carboxylate] | preferred substrate
COc1ccc2nc(C3=N[C@@H](C(=O)NN)CS3)sc2c1 [luciferin-6-methylether hydrazide, Hydrazide of luciferin methyl ether] | good selectivity
